Measurements: PMC7921063, “The Effects of Genetic Mutations and Drugs on the Activity of the Thiamine Transporter, SLC19A2” (The AAPS Journal, 2021)

Molecular target: T1, SLC19A2 (Homo sapiens, UniProt O60779)
T1 sequence (O60779 1-497): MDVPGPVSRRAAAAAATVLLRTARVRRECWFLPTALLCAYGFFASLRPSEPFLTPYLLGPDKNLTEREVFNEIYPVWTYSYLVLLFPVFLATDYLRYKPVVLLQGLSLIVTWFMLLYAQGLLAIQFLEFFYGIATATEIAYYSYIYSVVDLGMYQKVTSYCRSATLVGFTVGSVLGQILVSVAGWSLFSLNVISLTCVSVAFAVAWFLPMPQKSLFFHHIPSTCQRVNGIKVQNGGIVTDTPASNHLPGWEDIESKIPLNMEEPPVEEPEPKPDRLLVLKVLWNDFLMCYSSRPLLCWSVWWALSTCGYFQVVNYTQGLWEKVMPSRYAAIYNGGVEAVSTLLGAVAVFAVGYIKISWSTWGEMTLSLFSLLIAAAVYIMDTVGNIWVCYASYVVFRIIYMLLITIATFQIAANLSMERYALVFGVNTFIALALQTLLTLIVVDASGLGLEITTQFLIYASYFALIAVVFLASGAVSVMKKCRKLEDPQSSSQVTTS
Test: SLC19A2 inhibitor screen: [3H]-thiamine uptake in SLC19A2-overexpressing HEK293 cells
Assay type: cell-based
Parameters: host or cells: HEK293, stably overexpressing SLC19A2 and transiently transfected with a further 500 ng wild-type plasmid
Details: HEK293, 10 min, drug 1 mM, [3H]-thiamine 25 nM, 10 min, HEK293 cells expressing SLC19A2; relative to uptake without inhibitor; read-out: Average % SLC19A2 thiamine uptake
Experimental: Plasmids encoding wild-type SLC19A2 and three TRMA-associated variants were generated by Genscript Inc. (Piscataway, USA). Methods for generation of stably overexpressing SLC19A2 cell lines and uptake studies have been previously described ([11], [12]). Inhibition and kinetic studies were performed in SLC19A2-overexpressing stable HEK293 cells transiently transfected with an additional 500 ng of SLC19A2 wild-type plasmid.
Prescription drugs associated with MA ([2]) in addition to others belonging to listed drug classes (e.g., proton-pump inhibitors; 63 compounds total) were screened in triplicate at 1 mM to evaluate inhibitory activity against SLC19A2. […] Each plate contained control wells exposed for 10 min (within linear range, Supplemental Figure 1) to [^3H]-thiamine (positive control), [^3H]-thiamine plus 1 mM of amprolium (negative control), and [^3H]-thiamine plus 1 mM of screened drug (3 replicates per drug). Methods have been previously described ([11]). SLC19A2 inhibitors were defined as compounds that decreased SLC19A2-mediated thiamine uptake by 50% or more at 1 mM. For compounds that met this definition, inhibition assays were conducted and IC50 values were calculated by nonlinear fitting using GraphPad Prism 7 (La Jolla, CA) ([11]).
Fig. 3 Common mechanisms of drug-induced megaloblastic anemia and SLC19A2 inhibitor drug screen workflow. A list of drugs associated with inducing megaloblastic anemia through various mechanisms was compiled (a). Each drug was dissolved to a final concentration of 1 mM in buffer containing radiolabeled [^3H] thiamine and exposed to HEK293 cells expressing SLC19A2 wild-type transporter for 10 min.

remaining activity at 1000 µM [%] | Compound
87.7 | Nc1ccc(O)c(C(=O)O)c1 [5-aminosalicylic acid]
93.8 | O=c1[nH]cc(F)c(=O)[nH]1 [5-fluorouracil]
96.9 | Oc1ncnc2[nH]ncc12 [Allopurinol]
98.7 | NCC[C@H](O)C(=O)N[C@@H]1C[C@H](N)[C@@H](O[C@H]2O[C@H](CN)[C@@H](O)[C@H](O)[C@H]2O)[C@H](O)[C@H]1O[C@H]1O[C@H](CO)[C@@H](O)[C@H](N)[C@H]1O [Amikacin]
95.9 | CC1(C)S[C@@H]2[C@H](NC(=O)[C@H](N)c3ccc(O)cc3)C(=O)N2[C@H]1C(=O)O [Amoxicillin]
67.4 | CO[C@H]1O[C@@H]2O[C@@]3(C)CC[C@H]4[C@H](C)CC[C@@H]([C@H]1C)[C@@]24OO3 [Artemether]
87.2 | Cn1cnc([N+](=O)[O-])c1Sc1ncnc2nc[nH]c12 [Azathioprine]
81.9 | CC[C@H]1OC(=O)[C@H](C)[C@@H](O[C@H]2C[C@@](C)(OC)[C@@H](O)[C@H](C)O2)[C@H](C)[C@@H](O[C@@H]2O[C@H](C)C[C@H](N(C)C)[C@H]2O)[C@](C)(O)C[C@@H](C)CN(C)[C@H](C)[C@@H](O)[C@]1(C)O [Azithromycin]
90.8 | CC1(C)S[C@@H]2[C@H](NC(=O)C(C(=O)O)c3ccccc3)C(=O)N2[C@H]1C(=O)O (stereo partly shown) [Carbenicillin]
91.5 | O=C(N[C@H](CO)[C@H](O)c1ccc([N+](=O)[O-])cc1)C(Cl)Cl [Chloramphenicol]
107 | CN/C(=N/CCSCc1nc[nH]c1C)NC#N [Cimetidine]
58.2 | CC[C@H]1OC(=O)[C@H](C)[C@@H](O[C@H]2C[C@@](C)(OC)[C@@H](O)[C@H](C)O2)[C@H](C)[C@@H](O[C@@H]2O[C@H](C)C[C@H](N(C)C)[C@H]2O)[C@](C)(OC)C[C@@H](C)C(=O)[C@H](C)[C@@H](O)[C@]1(C)O [Clarithromycin]
67.8 | C[C@H]1c2cccc(O)c2C(=O)C2=C(O)[C@]3(O)C(=O)C(C(N)=O)=C(O)[C@@H](N(C)C)[C@@H]3[C@@H](O)[C@@H]21 [Doxycycline]
57.7 | COc1ccc2nc([S@@+]([O-])Cc3ncc(C)c(OC)c3C)[nH]c2c1 [Esomeprazole]
112 | C[C@]12CC[C@@H]3c4ccc(O)cc4CC[C@H]3[C@@H]1CC[C@@H]2O [Estradiol]
74 | NC(N)=Nc1nc(CSCCC(N)=NS(N)(=O)=O)cs1 [Famotidine]
21 | Cc1cnc(Nc2ccc(OCCN3CCCC3)cc2)nc1Nc1cccc(S(=O)(=O)NC(C)(C)C)c1 [Fedratinib]
63.3 | Nc1ccn([C@@H]2O[C@H](CO)[C@@H](O)C2(F)F)c(=O)n1 [Gemcitabine]
81.9 | CNC(C)C1CCC(N)C(OC2C(N)CC(N)C(OC3OCC(C)(O)C(NC)C3O)C2O)O1 (stereo not shown) [Gentamicin]
108 | NNC(=O)c1ccncc1 [Isoniazid]
45.9 | Cc1c(OCC(F)(F)F)ccnc1C[S+]([O-])c1nc2ccccc2[nH]1 (stereo not shown) [Lansoprazole]

remaining activity at 1000 µM [%] | Compound
57.7 | Cc1oncc1C(=O)Nc1ccc(C(F)(F)F)cc1 [Leflunomide]
77.7 | CC(=O)NC[C@H]1CN(c2ccc(N3CCOCC3)c(F)c2)C(=O)O1 [Linezolid]
90.5 | S=c1[nH]cnc2nc[nH]c12 [Mercaptopurine]
74.2 | CN(C)C(=N)N=C(N)N [Metformin]
84.9 | CN(Cc1cnc2nc(N)nc(N)c2n1)c1ccc(C(=O)N[C@@H](CCC(=O)O)C(=O)O)cc1 [Methotrexate]
82.7 | COc1c(C)c2c(c(O)c1C/C=C(\C)CCC(=O)O)C(=O)OC2 [Mycophenolic acid]
82.3 | [H]/N=C(/N)N/C(=N/[H])NCCc1ccccc1 [Phenformin]
75 | O=C1NC(=O)C(c2ccccc2)(c2ccccc2)N1 [Phenytoin]
68.8 | [H]/N=C(\N/C(=N/[H])Nc1ccc(Cl)cc1)NC(C)C [Proguanil]
99.2 | CCc1nc(N)nc(N)c1-c1ccc(Cl)cc1 [Pyrimethamine]
53 | C=C[C@H]1C[N@@]2CC[C@H]1C[C@@H]2[C@@H](O)c1ccnc2ccc(OC)cc12 [Quinidine]
69.7 | C=C[C@H]1C[N@@]2CC[C@H]1C[C@H]2[C@H](O)c1ccnc2ccc(OC)cc12 [Quinine]
75.3 | COCCCOc1ccnc(C[S+]([O-])c2nc3ccccc3[nH]2)c1C (stereo not shown) [Rabeprazole]
88.2 | Cc1nc2ccc(CN(C)c3ccc(C(=O)N[C@@H](CCC(=O)O)C(=O)O)s3)cc2c(=O)[nH]1 [Raltitrexed]
111 | CNC(=C[N+](=O)[O-])NCCSCc1ccc(CN(C)C)o1 [Ranitidine]
56.1 | CO[C@H]1/C=C/O[C@@]2(C)Oc3c(C)c(O)c4c(O)c(c(/C=N/N5CCN(C)CC5)c(O)c4c3C2=O)NC(=O)/C(C)=C\C=C\[C@H](C)[C@H](O)[C@@H](C)[C@@H](O)[C@@H](C)[C@H](OC(C)=O)[C@@H]1C [Rifampicin]
94.8 | COc1ncnc(NS(=O)(=O)c2ccc(N)cc2)c1OC [Sulfadoxine]
101 | O=C(O)c1cc(/N=N/c2ccc(S(=O)(=O)Nc3ccccn3)cc2)ccc1O [Sulfasalazine]
95.7 | C/C(O)=C(\C#N)C(=O)Nc1ccc(C(F)(F)F)cc1 [Teriflunomide]
93.3 | Nc1nc2nc[nH]c2c(=S)[nH]1 [Thioguanine]
111 | Nc1nc(N)c2nc(-c3ccccc3)c(N)nc2n1 [Triamterene]

Compound | remaining activity at 1000 µM [%]
Nc1nc(N)c2nc(CNc3ccc(C(=O)N[C@@H](CCC(=O)O)C(=O)O)cc3)cnc2n1 [Aminopterin] | 93
Nc1nc(F)nc2c1ncn2[C@@H]1O[C@H](CO)[C@@H](O)[C@@H]1O [Fludarabine] | 71.1
Cc1onc(-c2ccccc2)c1C(=O)N[C@@H]1C(=O)N2[C@@H]1SC(C)(C)[C@@H]2C(=O)O [Oxacillin] | 110
COc1cc(NC(C)CCCN)c2ncccc2c1 (stereo not shown) [Primaquine] | 76.5
CN(C)[C@@H]1C(O)=C(C(N)=O)C(=O)[C@@]2(O)C(O)=C3C(=O)c4c(O)cccc4[C@@](C)(O)[C@H]3C[C@@H]12 [Tetracycline] | 83.6

Same assay, conditions: HEK293, 10 min, read-out: Average % SLC19A2 thiamine uptake

Compound | remaining activity at 1000 µM [%]
CC1(C)S[C@@H]2[C@H](NC(=O)[C@H](N)c3ccccc3)C(=O)N2[C@H]1C(=O)O [Ampicillin] | 102
COc1cc2c(c(OC)c1OC)-c1ccc(OC)c(=O)cc1[C@@H](NC(C)=O)CC2 [Colchicine] | 95.9

Same assay, conditions: HEK293, 10 min; at 1 mM; read-out: reduction in thiamine transport (designated SLC19A2 inhibitor)

inhibition at 1000 µM [%] | Compound
≥ 50 | Cc1cnc(Nc2ccc(OCCN3CCCC3)cc2)nc1Nc1cccc(S(=O)(=O)NC(C)(C)C)c1 [Fedratinib]
≥ 50 | Cc1c(OCC(F)(F)F)ccnc1C[S+]([O-])c1nc2ccccc2[nH]1 (stereo not shown) [Lansoprazole]

Same assay, conditions: drug 1 mM, [3H]-thiamine 25 nM, 10 min, HEK293 cells expressing SLC19A2; relative to uptake without inhibitor

Average % SLC19A2 thiamine uptake [%] | Compound
105.5 | NC(=O)NO [Hydroxyurea]
87.72 | CCCCN(CCCC)CC(O)c1cc(Cl)cc2c1-c1ccc(Cl)cc1/C2=C/c1ccc(Cl)cc1 (stereo not shown) [Lumafantrine]
101.075 | O=C1CN(/N=C/c2ccc([N+](=O)[O-])o2)C(=O)N1 [Nitrofuranatoin]
86.37 | Neomycin
